System: A2058 cells
Assay: Experimental melanoma metastasis, i.v. luciferase-expressing A2058 cells in NOD/SCID mice
Format: in vivo
Conditions: n=10 per group
Protocol: FIGS. 6A-N show combined MEK and proteasome inhibition exerts potent tumor-suppressive effects. (A) After treatments with 20 nM AZD6244, 100 nM Bortezomib, or both for 24 hr, viable cells were quantitated by CellTiter® Blue (mean±SD, n=6, ANOVA). (B and C) 1×10^6 A2058 cells were s.c. injected into NOD/SCID mice. After 7 days, mice were treated with DMSO, 5 mg/Kg AZD6244, 0.5 mg/Kg Bortezomib, or the combination via i.p. injection three times a week. Tumor volumes were measured using a caliper weekly (mean±SEM, ANOVA). Tumor growth curves were fitted to exponential growth models to derive tumor-doubling time (DT). Kaplan-Meier survival curve was plotted for each group (Log-rank test). (D) Proteins were detected by immunoblotting, 3 tumors per group. (E) Tumor lysates were used to quantitate AOs, 5 tumors per group (mean±SD, n=3, ANOVA). (F) Tumor lysates were used to seed Aβ1-42 peptides, 5 tumors per group (mean±SD, n=3, ANOVA). (G-H) Tumor sections were stained with CR, 5 tumors per group. […] Total CR fluorescence in each field was quantitated using ImageJ and normalized against total nuclei (median, n=50, ANOVA). […] Body weights were monitored weekly (mean±SD, n=10, ANOVA). […]
A2058 cells were s.c. injected into the left flanks of 9-week-old female NOD.CB17-Prkdc/J (NOD/SCID) mice (The Jackson Laboratory). […] Tumor volumes were calculated following the formula 4/3πR^3. […]

## CC(C)C[C@H](NC(=O)[C@H](Cc1ccccc1)NC(=O)c1cnccn1)B(O)O [Bortezomib, bortezomib]
  mice with luminescence detected by in vivo imaging: 40%

Reference: patent US20180369203A1, “METHODS OF TREATING CANCER BY ADMINISTERING A MEK INHIBITOR IN COMBINATION WITH A PROTEASOME INHIBITOR” (The Jackson Laboratory, priority 2015, published 2018)
